Several values for one entry are separate records, joined by “and”; a condition that tells them apart may be missing. Equal entries are not always repeated. HELM strings list units from the 5' end as sugar, base in round brackets, then linkage (d deoxyribose, r ribose, m 2'-O-methyl, p phosphodiester). Methylation of C is not given here. [moe] = 2'-O-(2-methoxyethyl) (MOE); [cEt] = constrained ethyl (cEt); [sp] = phosphorothioate linkage
Molecular target: HBV
Conditions: ASO

## RNA1{[moe](G)[sp].[moe](A)[sp].[moe](A)[sp].[moe](C)[sp].[moe](C)[sp].[moe](A)[sp].d(C)[sp].d(T)[sp].d(G)[sp].d(A)[sp].d(A)[sp].d(C)[sp].d(A)[sp].d(A)[sp].d(A)[sp].[moe](T)[sp].[moe](G)}$$$$V2.0
HepG2, 0.07 µM
  target mRNA inhibition: 53% and 43%

## RNA1{[moe](G)[sp].[moe](A)[sp].[moe](A)[sp].[moe](C)[sp].[moe](T)[sp].[moe](G)[sp].d(G)[sp].d(A)[sp].d(G)[sp].d(C)[sp].d(C)[sp].d(A)[sp].d(C)[sp].d(C)[sp].d(A)[sp].[moe](G)[sp].[moe](C)}$$$$V2.0
HepG2, 0.07 µM
  target mRNA inhibition: 55% and 48%

## RNA1{[moe](G)[sp].[moe](A)[sp].[moe](A)[sp].[moe](C)[sp].d(C)[sp].d(A)[sp].d(C)[sp].d(T)[sp].d(G)[sp].d(A)[sp].d(A)[sp].d(C)[sp].d(A)[sp].[moe](A)[sp].[moe](A)[sp].[moe](T)[sp].[moe](G)}$$$$V2.0
HepG2, 0.07 µM
  target mRNA inhibition: 33% and 45%

## RNA1{[moe](G)[sp].[moe](A)[sp].[moe](A)[sp].[moe](C)[sp].d(T)[sp].d(G)[sp].d(G)[sp].d(A)[sp].d(G)[sp].d(C)[sp].d(C)[sp].d(A)[sp].d(C)[sp].[moe](C)[sp].[moe](A)[sp].[moe](G)}$$$$V2.0
HepG2, 0.07 µM
  target mRNA inhibition: 46% and 53%

## RNA1{[moe](G)[sp].[moe](A)[sp].[moe](A)[sp].[moe](G)[sp].[moe](C)[sp].d(G)[sp].d(A)[sp].d(A)[sp].d(G)[sp].d(T)[sp].d(G)[sp].d(C)[sp].d(A)[sp].d(C)[sp].[moe](A)[sp].[moe](C)}$$$$V2.0
HepG2, 0.07 µM
  target mRNA inhibition: 70% and 67%

## RNA1{[moe](G)[sp].[moe](A)[sp].[moe](A)[sp].[moe](G)[sp].d(C)[sp].d(G)[sp].d(A)[sp].d(A)[sp].d(G)[sp].d(T)[sp].d(G)[sp].d(C)[sp].d(A)[sp].[moe](C)[sp].[moe](A)[sp].[moe](C)}$$$$V2.0
HepG2, 0.07 µM
  target mRNA inhibition: 48% and 59%

## RNA1{[moe](G)[sp].[moe](A)[sp].[moe](A)[sp].[moe](G)[sp].d(T)[sp].d(C)[sp].d(C)[sp].d(A)[sp].d(C)[sp].d(C)[sp].d(A)[sp].d(C)[sp].d(G)[sp].[moe](A)[sp].[moe](G)[sp].[moe](T)[sp].[moe](C)}$$$$V2.0
HepG2, 0.07 µM
  target mRNA inhibition: 48% and 36%

## RNA1{[moe](G)[sp].[moe](A)[sp].[moe](A)[sp].d(C)[sp].d(A)[sp].d(A)[sp].d(A)[sp].d(T)[sp].d(G)[sp].d(G)[sp].d(C)[sp].d(A)[sp].d(C)[sp].[cEt](T)[sp].[cEt](A)[sp].[cEt](G)}$$$$V2.0
HepG2, 0.0092593 µM
  target mRNA inhibition: 15%
HepG2, 0.0277778 µM
  target mRNA inhibition: 40%
HepG2, 0.07 µM
  target mRNA inhibition: 80% and 81%
HepG2, 0.0833333 µM
  target mRNA inhibition: 69%
HepG2, 0.25 µM
  target mRNA inhibition: 86%

## RNA1{[moe](G)[sp].[moe](A)[sp].[moe](A)[sp].d(C)[sp].d(T)[sp].d(G)[sp].d(G)[sp].d(A)[sp].d(G)[sp].d(C)[sp].d(C)[sp].d(A)[sp].[moe](C)[sp].[moe](C)[sp].[moe](A)[sp].[moe](G)}$$$$V2.0
HepG2, 0.07 µM
  target mRNA inhibition: 51% and 39%

## RNA1{[moe](G)[sp].[moe](A)[sp].[moe](A)[sp].d(G)[sp].d(C)[sp].d(G)[sp].d(A)[sp].d(A)[sp].d(G)[sp].d(T)[sp].d(G)[sp].d(C)[sp].[moe](A)[sp].[moe](C)[sp].[moe](A)[sp].[moe](C)[sp].[moe](G)}$$$$V2.0
HepG2, 0.07 µM
  target mRNA inhibition: 76% and 60%

## RNA1{[moe](G)[sp].[moe](A)[sp].[moe](G)[sp].[cEt](G)[sp].[cEt](T)[sp].d(G)[sp].d(A)[sp].d(A)[sp].d(G)[sp].d(C)[sp].d(G)[sp].d(A)[sp].[cEt](A)[sp].[cEt](G)[sp].[moe](T)[sp].[moe](G)[sp].[moe](C)}$$$$V2.0
HepG2, 0.009375 µM
  target mRNA inhibition: 19%
HepG2, 0.01875 µM
  target mRNA inhibition: 27%
HepG2, 0.0375 µM
  target mRNA inhibition: 35%
HepG2, 0.075 µM
  target mRNA inhibition: 48%
HepG2, 0.15 µM
  target mRNA inhibition: 50%
HepG2, 0.3 µM
  target mRNA inhibition: 63%

## RNA1{[moe](G)[sp].[moe](A)[sp].[moe](G)[sp].[cEt](G)[sp].d(T)[sp].d(G)[sp].d(A)[sp].d(A)[sp].d(G)[sp].d(C)[sp].d(G)[sp].d(A)[sp].d(A)[sp].[cEt](G)[sp].[moe](T)[sp].[moe](G)[sp].[moe](C)}$$$$V2.0
HepG2, 0.009375 µM
  target mRNA inhibition: 22%
HepG2, 0.01875 µM
  target mRNA inhibition: 25%
HepG2, 0.0375 µM
  target mRNA inhibition: 50%
HepG2, 0.075 µM
  target mRNA inhibition: 69%
HepG2, 0.15 µM
  target mRNA inhibition: 76%
HepG2, 0.3 µM
  target mRNA inhibition: 88%

## RNA1{[moe](G)[sp].[moe](A)[sp].[moe](G)[sp].[moe](A)[sp].[moe](A)[sp].d(G)[sp].d(T)[sp].d(C)[sp].d(C)[sp].d(A)[sp].d(C)[sp].d(C)[sp].d(A)[sp].d(C)[sp].[moe](G)[sp].[moe](A)[sp].[moe](G)}$$$$V2.0
HepG2, 0.07 µM
  target mRNA inhibition: 20% and 13%

Reference: the OligoGym collection
